In article PMC9820303, “^αN-Acetyl β-Endorphin Is an Endogenous Ligand of σ1Rs That Regulates Mu-Opioid Receptor Signaling by Exchanging G Proteins for σ2Rs in σ1R Oligomers” (International Journal of Molecular Sciences, 2022):

Columns and labels:
σ1R-NR1 C1 = molecular target: T1, σ1R-NR1 C1 (Mus musculus, UniProt O55242); assay: In vitro σ1R-NR1 C1 association of recombinant proteins (Western blot); type: biochemical, murine; conditions: increasing concentrations; 30 min RT; vs control without ligand
T1 construct: The coding region of the full-length murine σ1R (AF004927); GST (N, cleaved yes); made in house; host or cells: E. coli BL21 (KRX)
T1 sequence (O55242 whole entry): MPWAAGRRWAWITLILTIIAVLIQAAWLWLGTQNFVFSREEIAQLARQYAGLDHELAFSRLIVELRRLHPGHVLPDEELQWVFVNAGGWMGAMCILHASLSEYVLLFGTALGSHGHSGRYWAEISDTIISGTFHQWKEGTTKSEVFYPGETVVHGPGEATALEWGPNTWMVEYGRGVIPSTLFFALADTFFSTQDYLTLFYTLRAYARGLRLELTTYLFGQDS
Experimental: (§1) Figure 7 Effect of β-End 1–31, ^αN-acetyl β-End 1–31 and their N-terminal derivatives on σ1R-σ2R, σ1R-NR1 C1 and σ1R-BiP associations. Amino acid sequence of β-End 1–31 showing derivatives 1–26 and 1–27. (A) HaloLink-attached σ2Rs were incubated for 30 min at RT in the presence of σ1Rs (100 nM) in 300 μL of 50 mM Tris-HCl (pH 7.4), 0.2% CHAPS, and 2.5 mM CaCl2. After removing the unbound σ1R proteins, the effects of increasing the peptide concentrations on σ1R-σ2R associations were studied. At the end of the incubation, protein complexes bound to HaloLink-σ2R were obtained by centrifugation, washed three times, solubilized in 2× Laemmli buffer containing β-mercaptoethanol, resolved by SDS-PAGE, and analyzed by Western blotting (for more details, see Section 4). This protocol was also used to assess the effect of ligands on (B) σ1R-NR1 C1 and (C) σ1R-BiP associations. Data were compared to that of the control, which was obtained in the absence of ligands. (A–C) Data are the mean ± SD, n = 3. (D) The β-End 1–31 structural models were predicted by Novafold (DNASTAR Lasergene protein v.17, Inc., Madison, WI, USA). Ribbon model: The 3D structure, charge distribution and hydrophobicity map of β-End 1–31 are shown. Positive charges are shown in red and negative charges in blue. Polar surfaces are shown in yellow, and nonpolar surfaces are shown in orange. Linear model: the opioid (1–5) and flexible region (8–11) sequences are shown in green and orange, respectively, and the amphiphilic helix (15–25) is shown in pink.
(§2) The recombinant σ1R (100 nM) was incubated either with Haloprotein (negative control) or together with the immobilized σ2R, NR1 C0-C1-C2 or BiP proteins in 300 µL of a buffer containing 50 mM Tris-HCl (pH 7.4) and 0.2% CHAPS in the presence of 2.5 mM CaCl2 for 30 min at RT. After removal of the unbound σ1R, the agarose-attached complexes were incubated for 30 min with rotation at RT in the presence of increasing concentrations of the ligands in a final reaction volume of 300 µL [50 mM Tris-HCl (pH 7.4), 2.5 mM CaCl2 and 0.2% CHAPS]. Ligands were usually dissolved in aqueous solutions; however, when an organic solvent such as DMSO was required to incorporate, e.g., pregnenolone sulfate, the solvent remained below 1% in the assay buffer. Agarose pellets containing the bound proteins were obtained by centrifugation, washed and resuspended thrice in the presence of 2.5 mM CaCl2, solubilized in 2× Laemmli buffer plus β-mercaptoethanol, and analyzed by Western blotting.
(§3) Because all the assays were performed with recombinant proteins, the immune signals provided a single band of the expected size, which was used for the subsequent densitometry analysis. Accordingly, no other regions of the blots provided information and were routinely excluded from the analysis.
Figure S8. Effect of the physiological and nonphysiological sequences of β-End 1-31 and classical σ1R ligands on BiP-σ1R, σ2R-σ1R and NR1 C1-σ1R associations . […]
D) Agarose-NR1 C1 loaded with […]
σ1Rs were incubated in the absence (control) and with nonphysiological derivatives of β-End 1-31. A-D) The σ1Rs that remained attached to the agarose complexes were evaluated by Western blotting. The […]
(1 picture or pasted object on this page, not shown here)
Figure S9. Effect of σ1R agonist/antagonist ligands on σ1R-NR1 C1 associations. Θ-Agarose-NR1 C1 was loaded with recombinant σ1Rs. After unbound σ1R proteins were removed, the complexes were incubated with (A) 1 nM β-End 1-31, (B) αN-acetyl β-End 1-31, (C-D) β-End 28-31 in the absence (black columns) and presence of (A) 10 nM or (B-D) increasing concentrations of competing σ1R ligands as indicated. The σ1Rs that remained attached to the Θ-σ2Rs were evaluated by Western blotting. The […]
Prog is progesterone; PregSulfate is pregnenolone sulfate; Nac is […]

σ1R-σ2R = σ1R-σ2R (Mus musculus, UniProt O55242); assay: In vitro σ1R-σ2R association of recombinant proteins (HaloLink-σ2R, Western blot); type: biochemical, murine; design: The coding region of the full-length murine σ1R (AF004927); GST (N, cleaved yes); made in house; host or cells: E. coli BL21 (KRX); conditions: for effect on σ1R-σ2R association: increasing concentrations, 30 min RT, vs control without ligand; for effect on the disruption of σ1R-σ2R associations by β-End 1–31: fixed concentration of β-End 1–31 (or β-End 1–27), increasing competitor; for EC50 to disrupt σ1R-σ2R interactions (range in words): 50 mM Tris-HCl pH 7.4, 0.2% CHAPS, 2.5 mM CaCl2, 30 min RT, n = 3
Chain of σ1R-σ2R (O55242 whole entry): as above
Experimental: as §1, §2, §3
Figure S7. Effect of σ1R agonist/antagonist ligands on σ1R-σ2R heterodimers. (A-C) Agarose (Θ)- attached σ2Rs captured recombinant σ1Rs. After removing unbound σ1R proteins, the Θ-σ2R.σ1R complexes were incubated with a ﬁxed concentration of a selected L1 ligand (indicated in brackets) in the absence and presence of increasing concentrations of competing σ1R ligands as indicated. The σ1Rs that remained attached to the Θ-σ2Rs were evaluated by Western blotting. * Signiﬁcant differences with respect to the control group that was incubated without L1 ligands. ANOVA followed by the Holm-Sidak multiple comparisons test, p < 0.05. For details, see Methods and Figure 6A. Representative blots are […]
Figure S8. Effect of the physiological and nonphysiological sequences of β-End 1-31 and classical σ1R ligands on BiP-σ1R, σ2R-σ1R and NR1 C1-σ1R associations . Agarose-BiP was loaded with σ1Rs, and after the unbound σ1Rs were removed, the agarose-BiP-σ1R complexes were incubated in the absence (control) and presence of increasing concentrations of (A) β-End 1-31 C-terminal physiological derivatives and (B) classical σ1R ligands. C) Agarose-σ2R loaded with σ1Rs was incubated in the […]

| Compound | effect on σ1R-NR1 C1 association (σ1R-NR1 C1) | effect on σ1R-σ2R association (σ1R-σ2R) | affinity toward σ1R indicated by the potency to counteract the β-End 1–31 effect (σ1R-σ2R; competition with β-End 1–31 on σ1R-σ2R (Figure S7A)) | effect on the disruption of σ1R-σ2R associations by β-End 1–31 (σ1R-σ2R) | EC50 to disrupt σ1R-σ2R interactions (range in words) (σ1R-σ2R) |
| --- | --- | --- | --- | --- | --- |
| Br.Br.CN(C)CCN(C)CCc1ccc(Cl)c(Cl)c1 [BD1047, N′-[2-(3,4-dichlorophenyl)ethyl]-N,N,N′-trimethylethane-1,2-diamine;dihydrobromide, reference compound] | did the opposite | did the opposite |  |  |  |
| β-End 22–31: nonphysiological C-terminal sequence of β-End 1–31 (IIKNAYKKGE; Beta-endorphin; UniProt P01189 258-267, looked up, fragment) | persisted | promoted their association |  |  |  |
| COC(=O)[C@]1(c2ccc(C)cc2)C[C@@H]1CN1CCC(O)(c2ccccc2)CC1 [PPCC, (1R,2S/1S,2R)-2-[4-hydroxy-4-phenylpiperidin-1-yl)methyl]-1-(4-methylphenyl) cyclopropanecarboxylate, reference compound] | increased σ1R-NR1 C1 complexes | impaired σ1R associations with σ2R and BiP |  |  |  |
| ^αN-acetyl β-End 1–31: β-End 1–31 acetylated at N terminal Y1, α position | separated σ1Rs from NR1 C1 subunits at pM concentrations | strengthened | fM range | antagonized |  |
| β-End 1–27: β-End 1–31 derivative without 4 C-terminal residues (YGGFMTSEKSQTPLVTLFKNAIIKNAY; Beta-endorphin; UniProt P01189 237-263, looked up, fragment) | weak or no effects |  |  |  | low–medium nM range |
| Cl.O=C(OCCN1CCOCC1)C1(c2ccccc2)CCCCC1 [PRE084, 2-(4-morpholinethyl)-1-phenylcyclohexanecarboxylate hydrochloride, reference compound] | increased σ1R-NR1 C1 complexes | impaired σ1R associations with σ2R and BiP |  |  |  |
| YKKGE [β-End 27–31, C-terminal pentapeptide of β-End 1–31] | increased σ1R-NR1 C1 | reduced σ1R-σ2R |  |  |  |
| Cc1cc(OCCN2CCOCC2)nn1-c1ccc2ccccc2c1 [S1RA] | did the opposite | did the opposite |  |  |  |
| KKGE [β-End 28–31, C-terminal tetrapeptide of β-End 1–31] | reduced σ1R-NR1 C1 interactions | promoted σ1R-σ2R associations |  | counteracted |  |
| β-End 6–31: β-End 1–31 lacking the N-terminal met-enkephalin 1–5 sequence (TSEKSQTPLVTLFKNAIIKNAYKKGE; Beta-endorphin; UniProt P01189 242-267, looked up, fragment) | began to separate the complex | diminished σ1R-σ2R associations |  |  |  |
| β-End 1–26: β-End 1–31 derivative without 5 C-terminal residues (YGGFMTSEKSQTPLVTLFKNAIIKNA; Beta-endorphin; UniProt P01189 237-262, looked up, fragment) | promoted σ1R-NR1 C1 associations at pM concentrations |  |  |  | low–medium nM range |
